Where two headings read alike, the source gives them in different places.
Assays:
[1] = test system: HT-29 cells; assay: Measurement of extracellular pH; format: cell-based; settings: for Extracellular pH, Hypoxic condition: hypoxia, control 6.81; for Extracellular pH, Normoxic condition: normoxia, control 7.02
Method: The main role of CA IX and XII in tumour development is to regulate the pH of the tumour growth microenvironment so that tumour cells are in a weakly acidic environment. Such an acidic environment is conducive to the growth of tumour cells and protects tumour cells from being killed by chemotherapeutics. We evaluated the effects of 0.1 mM and 1.0 mM of compounds 16a and 16b on the pH of the tumour cell growth environment under normoxia or hypoxia (detailed data is provided in the Tables S5 and S6 of supplementary information).
(§1) The changes in extracellular pH were evaluated according to previously published procedures. Cancer cells were grown in the medium containing 10% FBS and incubated in 6-well plates for 12 h. After removing the medium, we added fresh medium to the 6-well plates and incubated them for 48 h under hypoxia or normoxia. Then, we measured the pH of the culture medium immediately after collection. The tested compounds were dissolved in DMSO and diluted to the desired concentration. After the addition of tested compounds, the same procedure was carried out.

[2] = test system: MDA-MB-231 cells; assay: Cell migration (scratch wound) assay; format: cell-based; settings: MDA-MB-231, 400 μM, hypoxia
Method: Tumour cell migration is one of the basic biological characteristics of tumour cells. […] MDA-MB-231 was selected as the experimental cell line to explore the ability of 16a to reduce tumour cells migration under hypoxia.
MDA-MB-231 cells (1 × 10^5 cells/well) were cultured in 6-well plates and wounded by scratching with a pipette tip. The wounded cell monolayers were washed three times with PBS and incubated with serum-free medium.

[3] = test system: MDA-MB-231 cells; assay: Measurement of extracellular pH; format: cell-based; settings: for Extracellular pH, Hypoxic condition: hypoxia, control 6.84; for Extracellular pH, Normoxic condition: normoxia, control 7.06
Method: The main role of CA IX and XII in tumour development is to regulate the pH of the tumour growth microenvironment so that tumour cells are in a weakly acidic environment. Such an acidic environment is conducive to the growth of tumour cells and protects tumour cells from being killed by chemotherapeutics.
as §1

[4] = test system: MDA-MB-231 cells; assay: CCK-8 cell viability assay; format: cell-based; settings: Homo sapiens, MDA-MB-231, 400 μM, 48 h
Method: (§2) The CCK-8 assay was used to evaluate the cytotoxicity of compounds 16a, 16b, and 16e on the breast cancer cell line MDA-MB-231 and colon cancer cell line HT-29. MDA-MB-231 and HT-29 are tumour cells that have been reported to express CA IX. We cultivated them under normoxia and hypoxia respectively and then evaluated the effects of the compounds on tumour cell viability at different concentrations.
(§3) Cell viability was tested by CCK-8 assay. The MDA-MB-231, HT-29 and MG-63 cell lines were provided by KeyGEN BioTECH Ltd. (Nanjing, Jiangsu, China). The cancer cell suspension was prepared to 5.0 × 10^4 cells/mL. After adding 100 μL cell suspension into each well of 96-well plates, the 96-well plates were placed in the incubator at 37 °C and 5% CO2 for 24 h. The compounds were diluted to the required concentration with the medium, and 100 μL of the corresponding medium was added to each well. Meanwhile, the negative control group was set up. The plates were incubated in normoxia or hypoxia for 48 h. The CCK-8 solution (10 μL) was added to each well, and the cells were incubated for another 3 h. After removing the bubbles in each well, cell viability was assessed by measuring the absorbance at 450 nm wavelength using a microplate reader. The hypoxia atmosphere consisted of 0.5% O2, 5% CO2, and 94.5% N2. The normoxia atmosphere was air.

[5] = test system: HT-29 cells; assay: CCK-8 cell viability assay; format: cell-based; settings: for viability at 400 µM: Homo sapiens, HT-29, 400 μM, 48 h
Method: as §2, §3

[6] = biological target: hCA II (Homo sapiens, UniProt P00918); assay: CA inhibition assay (hydrolysis of 4-nitrophenylacetate); format: biochemical; settings: 4-NPA hydrolysis; three independent assays, relative errors 5–10%
From the text: (§4) Carbonic anhydrase has the ability to catalyse the hydrolysis of 4-NPA. […] More detailed operations and specific parameters are as reported earlier.

[7] = biological target: hCA IX (Homo sapiens, UniProt Q16790); assay: as above; format: biochemical; settings: 4-NPA hydrolysis; three independent assays, relative errors 5–10%
From the text: as §4

[8] = biological target: hCA XII (Homo sapiens, UniProt O43570); assay: as above; format: biochemical; settings: 4-NPA hydrolysis; three independent assays, relative errors 5–10%
From the text: as §4

[9] = hypoxia, read-out: cell viability, Hypoxic condition (%)
[10] = normoxia, read-out: cell viability, Normoxic condition (%)

hCA XII, sequence (O43570 25-354): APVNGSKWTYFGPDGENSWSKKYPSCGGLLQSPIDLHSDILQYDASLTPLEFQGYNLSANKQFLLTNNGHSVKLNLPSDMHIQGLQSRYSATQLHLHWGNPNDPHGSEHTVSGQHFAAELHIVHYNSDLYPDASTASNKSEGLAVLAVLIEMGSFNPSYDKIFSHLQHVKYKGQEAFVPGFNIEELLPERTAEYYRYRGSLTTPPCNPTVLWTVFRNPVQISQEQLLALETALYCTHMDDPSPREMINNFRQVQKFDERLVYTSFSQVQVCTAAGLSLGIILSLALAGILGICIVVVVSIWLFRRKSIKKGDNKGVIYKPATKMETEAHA

IC50 [6]: 27.7 nM | IC50 [7]: 51.6 nM | IC50 [8]: 135 nM
Structure (SMILES): NS(=O)(=O)c1ccc(-n2cc(-c3ccc(NC(=O)CCC(=O)N[C@@H]4O[C@H](CO)[C@@H](O)[C@H](O)[C@H]4O)cc3)nn2)cc1 [Compound 16a, N^1-(4-(1-(4-sulfamoylphenyl)-1H-1,2,3-triazol-4-yl)phenyl)-N^4-((2R,3R,4S,5S,6R)-3,4,5-trihydroxy-6-(hydroxymethyl)tetrahydro-2H-pyran-2-yl)succinamide]
effect on extracellular pH ([1]; HT-29, 0.1 mM and 1.0 mM): improve the extracellular pH | Extracellular pH, Hypoxic condition ([1]; HT-29, 0.1 mM): 6.88 | Extracellular pH, Normoxic condition ([1]; HT-29, 0.1 mM): 6.97 | Extracellular pH, Hypoxic condition ([1]; HT-29, 1.0 mM): 7.26 | Extracellular pH, Normoxic condition ([1]; HT-29, 1.0 mM): 7.13 | effect on tumour cell migration ([2]; at 72 h): could hardly be detected | effect on tumour cell migration ([2]; first 24 h, vs blank group): slight inhibitory effect | effect on extracellular pH ([3]; MDA-MB-231, 0.1 mM and 1.0 mM): improve the extracellular pH | Extracellular pH, Hypoxic condition ([3]; MDA-MB-231, 0.1 mM): 6.9 | Extracellular pH, Normoxic condition ([3]; MDA-MB-231, 0.1 mM): 7.04 | Extracellular pH, Hypoxic condition ([3]; MDA-MB-231, 1.0 mM): 7.31 | Extracellular pH, Normoxic condition ([3]; MDA-MB-231, 1.0 mM): 7.21 | viability at 400 µM [4, 9]: 85.1 ± 1.68% | viability at 400 µM [4, 10]: 88.9 ± 1.71% | decrease in cell viability ([5]; HT-29, highest concentration of 400 μM): 20% | viability at 400 µM [5, 9]: 82.6 ± 1.92% | viability at 400 µM [5, 10]: 83.3 ± 2.09%
